Ten compounds from ChEMBL document CHEMBL5528028, “Discovery of benzopyridone cyanoacetates as new type of potential broad-spectrum antibacterial candidates” (Eur J Med Chem, 2024) can be followed below.

Holding throughout (assay type): functional
One test has as its system Klebsiella pneumoniae. Kind of test: Antibacterial activity against Klebsiella pneumonia assessed growth inhibition by micro broth dilution method.
In test [1] the test system is Pseudomonas aeruginosa. The test is described as follows: Antibacterial activity against Pseudomonas aeruginosa assessed growth inhibition by micro broth dilution method.
Another test concerns Acinetobacter baumannii. The test is described as follows: Antibacterial activity against Acinetobacter baumannii assessed growth inhibition by micro broth dilution method.
Test [2] relates to Staphylococcus aureus. Kind of test: Antibacterial activity against methicillin-resistant Staphylococcus aureus assessed growth inhibition by micro broth dilution method.
In test [3] the test system is Staphylococcus aureus. The test is described as follows: Antibacterial activity against Staphylococcus aureus assessed growth inhibition by micro broth dilution method.
In test [4] the test system is Staphylococcus aureus. Kind of test: Antibacterial activity against Staphylococcus aureus ATCC 25923 assessed growth inhibition by micro broth dilution method.
The test system of test [5] is Pseudomonas aeruginosa. Kind of test: Antibacterial activity against Pseudomonas aeruginosa ATCC 27853 assessed growth inhibition by micro broth dilution method.
The test system of test [6] is Escherichia coli. The test is described as follows: Antibacterial activity against Escherichia coli assessed growth inhibition by micro broth dilution method.
Test [7] concerns Escherichia coli. The test is described as follows: Antibacterial activity against Escherichia coli ATCC 25922 assessed growth inhibition by micro broth dilution method.
For a further test, the system named is Enterococcus faecalis. The test is described as follows: Antibacterial activity against Enterococcus faecalis assessed growth inhibition by micro broth dilution method.
In test [8] the test system is Staphylococcus aureus. Kind of test: Antibacterial activity against Staphylococcus aureus ATCC 29213 assessed growth inhibition by micro broth dilution method.

In brackets after ≈: the same amount, converted by molar mass.

As for `CCCCCn1cc(C(=O)OCC)c(=O)c2cc(F)c(F)cc21`, the MIC is 64 µg/mL (≈ 198 µM) against Klebsiella pneumoniae; 64 µg/mL (≈ 198 µM) in the test with Pseudomonas aeruginosa [1]; 64 µg/mL (≈ 198 µM) against Acinetobacter baumannii; 256 µg/mL (≈ 792 µM) in the test with Staphylococcus aureus [2]; 32 µg/mL (≈ 99 µM) in the test on Staphylococcus aureus [3]; 256 µg/mL (≈ 792 µM) in the test with Staphylococcus aureus [4]. Besides, the MIC in the test with Pseudomonas aeruginosa [5] turned out to be 256 µg/mL (≈ 792 µM); against Escherichia coli [6], 16 µg/mL (≈ 49.5 µM); in the test with Escherichia coli [7] it was 64 µg/mL (≈ 198 µM); in the test on Enterococcus faecalis, 64 µg/mL (≈ 198 µM); against Staphylococcus aureus [8], 64 µg/mL (≈ 198 µM).

As for `CCOC(=O)c1cn(CC2CCC2)c2cc(F)c(F)cc2c1=O`, the MIC in the test on Klebsiella pneumoniae stood at 32 µg/mL (≈ 99.6 µM); against Pseudomonas aeruginosa [1], 32 µg/mL (≈ 99.6 µM); against Acinetobacter baumannii it was 128 µg/mL (≈ 398 µM); in the test with Staphylococcus aureus [2], 256 µg/mL (≈ 797 µM); in the test on Staphylococcus aureus [3], 64 µg/mL (≈ 199 µM); with Staphylococcus aureus [4], 16 µg/mL (≈ 49.8 µM). Further, the MIC against Pseudomonas aeruginosa [5] amounted to 256 µg/mL (≈ 797 µM); against Escherichia coli [6], 16 µg/mL (≈ 49.8 µM); in the test with Escherichia coli [7], 128 µg/mL (≈ 398 µM); against Enterococcus faecalis, 128 µg/mL (≈ 398 µM); in the test with Staphylococcus aureus [8] it was 256 µg/mL (≈ 797 µM).

Turning to `CCOC(=O)c1cn(CC(N)=O)c2cc([C-](C#N)C(=O)OCC)c(F)cc2c1=O.[Na+]` (stereo not given), the MIC with Klebsiella pneumoniae, against Pseudomonas aeruginosa [1], against Acinetobacter baumannii, against Staphylococcus aureus [2], against Staphylococcus aureus [3] and in the test with Staphylococcus aureus [4] was 256 µg/mL in each case. The MIC in the test with Pseudomonas aeruginosa [5], with Escherichia coli [6], with Escherichia coli [7], against Enterococcus faecalis and with Staphylococcus aureus [8] was 256 µg/mL each time.

For `C#CCn1cc(C(=O)OCC)c(=O)c2cc(F)c([C-](C#N)C(=O)OCC)cc21.[Na+]` (stereo not given), the MIC with Klebsiella pneumoniae is 16 µg/mL; against Pseudomonas aeruginosa [1], 32 µg/mL; against Acinetobacter baumannii, 16 µg/mL; against Staphylococcus aureus [2], 64 µg/mL; with Staphylococcus aureus [3] it was 64 µg/mL; with Staphylococcus aureus [4], 2 µg/mL. Besides, the minimum inhibitory concentration (MIC) amounted to 8 µg/mL in the test on Pseudomonas aeruginosa [5]; 16 µg/mL against Escherichia coli [6]; 8 µg/mL against Escherichia coli [7]; 32 µg/mL in the test on Enterococcus faecalis; 16 µg/mL with Staphylococcus aureus [8].

As to `CCOC(=O)c1cn(CC)c2cc([C-](C#N)C(=O)OCC)c(F)cc2c1=O.[Na+]` (stereo not given), the MIC came to 32 µg/mL against Klebsiella pneumoniae; 32 µg/mL in the test on Pseudomonas aeruginosa [1]; 32 µg/mL in the test with Acinetobacter baumannii; 64 µg/mL against Staphylococcus aureus [2]; 256 µg/mL in the test on Staphylococcus aureus [3]; 2 µg/mL in the test on Staphylococcus aureus [4]. For the same compound, the MIC against Pseudomonas aeruginosa [5] was found to be 32 µg/mL; in the test with Escherichia coli [6], 64 µg/mL; in the test on Escherichia coli [7] it was 32 µg/mL; against Enterococcus faecalis it was 64 µg/mL; in the test on Staphylococcus aureus [8] it was 64 µg/mL.

With `CCn1cc(C(=O)O)c(=O)c2cc(F)c(N3CCNCC3)cc21` [NORFLOXACIN], the MIC in the test with Klebsiella pneumoniae is 8 µg/mL (≈ 25.1 µM); against Pseudomonas aeruginosa [1] it was 8 µg/mL (≈ 25.1 µM); in the test on Acinetobacter baumannii, 2 µg/mL (≈ 6.26 µM); with Staphylococcus aureus [2] it was 8 µg/mL (≈ 25.1 µM); against Staphylococcus aureus [3], 8 µg/mL (≈ 25.1 µM); against Staphylococcus aureus [4], 8 µg/mL (≈ 25.1 µM). Also, the MIC in the test on Pseudomonas aeruginosa [5] came out at 8 µg/mL (≈ 25.1 µM); in the test on Escherichia coli [6], 4 µg/mL (≈ 12.5 µM); against Escherichia coli [7] it was 4 µg/mL (≈ 12.5 µM); against Enterococcus faecalis it was 8 µg/mL (≈ 25.1 µM); in the test on Staphylococcus aureus [8] it was 4 µg/mL (≈ 12.5 µM).

For `CCOC(=O)C(C#N)c1cc2c(cc1F)c(=O)c(C(=O)O)cn2Cc1ccc(Cl)c(Cl)c1` (stereo not given), the MIC against Klebsiella pneumoniae worked out at 4 µg/mL (≈ 8.38 µM); with Pseudomonas aeruginosa [1], 16 µg/mL (≈ 33.5 µM); against Acinetobacter baumannii, 16 µg/mL (≈ 33.5 µM); in the test on Staphylococcus aureus [2], 32 µg/mL (≈ 67 µM); in the test with Staphylococcus aureus [3], 64 µg/mL (≈ 134 µM); against Staphylococcus aureus [4] it was 32 µg/mL (≈ 67 µM). The MIC against Pseudomonas aeruginosa [5] worked out at 4 µg/mL (≈ 8.38 µM); against Escherichia coli [6] it was 128 µg/mL (≈ 268 µM); against Escherichia coli [7], 0.5 µg/mL (≈ 1.05 µM); in the test on Enterococcus faecalis, 128 µg/mL (≈ 268 µM); in the test with Staphylococcus aureus [8] it was 64 µg/mL (≈ 134 µM).

In the case of `CCOC(=O)c1cn(C2CC2)c2cc(F)c(F)cc2c1=O`, the MIC with Klebsiella pneumoniae was determined as 64 µg/mL (≈ 218 µM); against Pseudomonas aeruginosa [1] it was 32 µg/mL (≈ 109 µM); with Acinetobacter baumannii, 256 µg/mL (≈ 873 µM); against Staphylococcus aureus [2], 256 µg/mL (≈ 873 µM); against Staphylococcus aureus [3], 64 µg/mL (≈ 218 µM); in the test on Staphylococcus aureus [4], 16 µg/mL (≈ 54.6 µM). The MIC came to 256 µg/mL (≈ 873 µM) in the test on Pseudomonas aeruginosa [5]; 16 µg/mL (≈ 54.6 µM) in the test on Escherichia coli [6]; 64 µg/mL (≈ 218 µM) against Escherichia coli [7]; 128 µg/mL (≈ 436 µM) in the test with Enterococcus faecalis; 128 µg/mL (≈ 436 µM) in the test with Staphylococcus aureus [8].

As for `CCOC(=O)c1cn(CCN2CCOCC2)c2cc(F)c(F)cc2c1=O`, the MIC against Klebsiella pneumoniae came to 256 µg/mL (≈ 699 µM); in the test with Pseudomonas aeruginosa [1], 128 µg/mL (≈ 349 µM); against Acinetobacter baumannii it was 2 µg/mL (≈ 5.46 µM); against Staphylococcus aureus [2] it was 256 µg/mL (≈ 699 µM); against Staphylococcus aureus [3], 64 µg/mL (≈ 175 µM); in the test on Staphylococcus aureus [4], 256 µg/mL (≈ 699 µM). Further, the MIC in the test on Pseudomonas aeruginosa [5] is 128 µg/mL (≈ 349 µM); against Escherichia coli [6] it was 2 µg/mL (≈ 5.46 µM); against Escherichia coli [7] it was 128 µg/mL (≈ 349 µM); with Enterococcus faecalis, 128 µg/mL (≈ 349 µM); in the test on Staphylococcus aureus [8], 256 µg/mL (≈ 699 µM).

Take `CCOC(=O)c1cn(Cc2ccc(Cl)c(Cl)c2)c2cc(C(C#N)C(=O)OCC)c(F)cc2c1=O` (stereo not given): the MIC was found to be 1 µg/mL (≈ 1.98 µM) in the test with Klebsiella pneumoniae; 0.5 µg/mL (≈ 0.989 µM) in the test with Pseudomonas aeruginosa [1]; 2 µg/mL (≈ 3.96 µM) against Acinetobacter baumannii; 8 µg/mL (≈ 15.8 µM) with Staphylococcus aureus [2]; 4 µg/mL (≈ 7.92 µM) against Staphylococcus aureus [3]; 1 µg/mL (≈ 1.98 µM) in the test with Staphylococcus aureus [4]. Moreover, the MIC was 2 µg/mL (≈ 3.96 µM) in the test with Pseudomonas aeruginosa [5]; 8 µg/mL (≈ 15.8 µM) against Escherichia coli [6]; 4 µg/mL (≈ 7.92 µM) against Escherichia coli [7]; 16 µg/mL (≈ 31.7 µM) in the test on Enterococcus faecalis; 0.25 µg/mL (≈ 0.495 µM) against Staphylococcus aureus [8].
